Where a name gives a salt, the structure may show the parent alone. Read-outs that look alike come from different tables or passages of the source. Values belong to the molecule of their own block, whether it stands above or below them.
Assays:
pKa of the ligand = format: physicochemical
[1] = Distribution coefficient DpH7.4 (Kpart), octanol/MOPS pH 7.4; format: physicochemical
Source text: The requirements for orally active chelators are set out in Table 4 of Hider et al as (i) good absorption from tile gastrointestinal tract, (ii) efficient liver extraction, (iii) poor entry into peripheral cells such as thymus, muscle, heart and bone marrow and (iv) poor ability to penetrate the blood-brain barrier and maternal/placental barriers.

[2] = pM for Iron III (affinity for iron as Fe III); format: physicochemical; settings: negative log ferric ion concentration; total iron 10^-6 M, ligand 10^-5 M
Source text: The present inventors now have provided a group of 3-hydroxypyridin-4-one iron chelators having improved properties as compared to the prior art as assessed against the criteria set out above. […] Preferred compounds have efficiency of iron mobilisation of in excess of 52% when given orally to rats. […]

[3] = Iron (III) complex stability constant Logβ3; format: physicochemical
[4] = Iron III Mobilisation Efficacy Assay in Rat: Oral Administration; format: in vivo; settings: for Efficacy: iron mobilisation less control
Procedure: Control rats were given an equivalent volume of water. The rats were placed in individual metabolic cages and their urine and faeces collected. One hour after the administration they were allowed access to food, with no restriction on water being made throughout the study period. The investigation was terminated 24 hours after the ^59Fe ferritin administration when rats were sacrificed and their livers and gastrointestinal tracts, including all contents including faeces, were removed for gamma counting.

[5] = method marked (p), first pKa, read-out: pKa, first value (p)
[6] = method marked (p), second pKa, read-out: pKa, second value (p)
[7] = method marked (s), first pKa, read-out: pKa, first value (s)
[8] = method marked (s), second pKa, read-out: pKa, second value (s)

Compound: O=C(OCCCn1ccc(=O)c(O)c1CO)c1ccccc1 [CP367, 1-[(3-Benzoyloxy)propyl]-2-hydroxymethyl-3-hydroxy-pyridin-4(1H)-one hydrochloride]
pKa (pKa of the ligand; [5]): 2.6
pKa (pKa of the ligand; [6]): 9.07
pKa (pKa of the ligand; [7]): 2.7
pKa (pKa of the ligand; [8]): 8.95
DpH 7.4 [1]: 5.61

Compound: O=c1ccn(CCO)c(C(O)c2ccccc2)c1O (centres unmarked) [Novartis bidentate ligand (3), reference compound]
pMpH 7.45 [2]: 23.15
pKa (pKa of the ligand; [5]): 2.59
pKa (pKa of the ligand; [6]): 8.38
pKa (pKa of the ligand; [7]): 2.6
pKa (pKa of the ligand; [8]): 8.39
DpH 7.4 [1]: 2.81
Logβ3 [3]: 35.57

Compound: CC(O)c1c(O)c(=O)ccn1CCCO (centres unmarked) (as salt: hydrochloride) [CP372, 1-(3-hydroxypropyl)-2-(1-hydroxyethyl)-3-hydroxy-pyridin-4(1H)-one hydrochloride]
melting point: 117 to 120 °C

Compound: O=C(OCCCn1ccc(=O)c(O)c1CO)c1ccccc1 (as salt: hydrochloride) [CP367, 1-[(3-Benzoyloxy)propyl]-2-hydroxymethyl-3-hydroxy-pyridin-4(1H)-one hydrochloride]
melting point: 142 to 143 °C

Compound: Cn1ccc(=O)c(O)c1CO (as salt: hydrochloride) [CP364, 1-Methyl-2-hydroxymethyl-3-hydroxy-pyridin-4(1H)-one hydrochloride]
melting point: 157 to 159 °C

Compound: Cc1cc(=O)c(O)c(C(=O)NCCO)n1C (as salt: hydrochloride) [CP507, 1,6-Dimethyl-3-hydroxy-4(1H)-pyridinone-2-carboxy-(N-2′-hydroxyethyl)-amide hydrochloride]
melting point: 178 to 181 °C

Compound: COCCNC(=O)c1c(O)c(=O)cc(C)n1C (as salt: hydrochloride) [CP506, 1,6-Dimethyl-3-hydroxy-4(1H)-pyridinone-2-carboxy-(N-2′-methoxyethyl)-amide hydrochloride]
melting point: 204 to 206 °C

Compound: Cc1cc(=O)c(O)c(C(=O)NCCO)n1C [CP507, 1,6-Dimethyl-3-hydroxy-4(1H)-pyridinone-2-carboxy-(N-2′-hydroxyethyl)-amide hydrochloride]
pMpH 7.45 [2]: 22.73
pKa (pKa of the ligand; [5]): 2.65
pKa (pKa of the ligand; [6]): 8.28
pKa (pKa of the ligand; [7]): 2.57
pKa (pKa of the ligand; [8]): 8.19
DpH 7.4 [1]: 0.02
Logβ3 [3]: 34.63

Compound: Cc1cc(=O)c(O)c(CO)n1C [CP360, 1,6-Dimethyl-2-hydroxymethyl-3-hydroxy-pyridin-4(1H)-one hydrochloride]
pMpH 7.45 [2]: 20.43
pKa, first value (s) (pKa of the ligand; method marked (s), first pKa): 3.37
pKa, second value (s) (pKa of the ligand; method marked (s), second pKa): 9.42
DpH 7.4 [1]: 0.098
Logβ3 [3]: 35.51

Compound: Cc1cc(=O)c(O)c(C(=O)N(C)C)n1C (as salt: hydrochloride) [CP508, 1,6-Dimethyl-3-hydroxy-4(1H)-pyridinone-2-carboxy-(N,N-dimethyl)-amide hydrochloride]
melting point: 219 °C (dec.)

Compound: CNC(=O)c1c(O)c(=O)cc(C)n1C (as salt: hydrochloride) [CP502, 1,6-Dimethyl-3-hydroxy-4(1H)-pyridinone-2-carboxy-(N-methyl)-amide hydrochloride]
melting point: 238 °C (dec.)

Compound: CCn1ccc(=O)c(O)c1CO [CP359, 1-Ethyl-2-hydroxymethyl-3-hydroxy-pyridin-4(1H)-one hydrochloride]
pMpH 7.45 [2]: 20.96
pKa, first value (s) (pKa of the ligand; method marked (s), first pKa): 2.88
pKa, second value (s) (pKa of the ligand; method marked (s), second pKa): 9.05
DpH 7.4 [1]: 0.14
Logβ3 [3]: 35.25

Compound: Cc1cc(=O)c(O)c(CO)n1C (as salt: hydrochloride) [CP360, 1,6-Dimethyl-2-hydroxymethyl-3-hydroxy-pyridin-4(1H)-one hydrochloride]
melting point: 140 to 143 °C

Compound: Cn1c(CO)cc(=O)c(O)c1CO [CP387]
DpH 7.4 [1]: 0.04

Compound: COCc1cc(=O)c(O)c(COC)n1C (as salt: hydrochloride) [CP388, 2,6-Dimethoxymethyl-1-methyl-3-hydroxypyridin-4(1H)-one hydrochloride]
melting point: 161 to 163 °C

Compound: CCn1c(C)cc(=O)c(O)c1COC [CP370, 1-Ethyl-2-methoxymethyl-3-hydroxy-6-methyl-pyridin-4(1H)-one hydrochloride]
DpH 7.4 [1]: 1.08

Compound: CCn1c(C)cc(=O)c(O)c1COC (as salt: hydrochloride) [CP370, 1-Ethyl-2-methoxymethyl-3-hydroxy-6-methyl-pyridin-4(1H)-one hydrochloride]
melting point: 174 to 176 °C

Compound: CCn1c(C)cc(=O)c(O)c1CO (as salt: hydrochloride) [CP369, 1-Ethyl-2-hydroxymethyl-3-hydroxy-6-methyl-pyridin-4(1H)-one hydrochloride]
melting point: 160 to 162 °C

Compound: CCn1ccc(=O)c(O)c1CO (as salt: hydrochloride) [CP359, 1-Ethyl-2-hydroxymethyl-3-hydroxy-pyridin-4(1H)-one hydrochloride]
melting point: 168 to 169 °C

Further lines, with some results ahead:

DpH 7.4 [1]: 3.32
Compound: CCOC(C)c1c(O)c(=O)cc(C)n1C (centres unmarked) [CP373, 1,6-Dimethyl-2-(1-ethoxyethyl)-3-hydroxy-pyridin-4(1H)-one hydrochloride]

pMpH 7.45 [2]: 21.47
pKa, first value (s) (pKa of the ligand; method marked (s), first pKa): 3.55
pKa, second value (s) (pKa of the ligand; method marked (s), second pKa): 8.97
DpH 7.4 [1]: 0.25
Logβ3 [3]: 3.52
Compound: Cc1cc(=O)c(O)c(C(C)O)n1C (centres unmarked) [CP361, 1,6-Dimethyl-2-(1-hydroxyethyl)-3-hydroxy-pyridin-4(1H)-one hydrochloride]

melting point: 221 to 223 °C
Compound: CCC(O)c1c(O)c(=O)cc(C)n1C (centres unmarked) (as salt: hydrochloride) [CP374, 1,6-Dimethyl-2-(1-hydroxypropyl)-3-hydroxy-pyridin-4(1H)-one hydrochloride]

DpH 7.4 [1]: 3.85
Compound: CCC(OC)c1c(O)c(=O)cc(C)n1C (centres unmarked) [CP375, 1,6-Dimethyl-2-(1-methoxypropyl)-3-hydroxy-pyridin-4(1H)-one hydrochloride]
Iron Mobilisation ([4]; 150 μmol/kg): 40.2 ± 8.5%
Efficacy ([4]; 150 μmol/kg): 36.3%
Iron Mobilisation ([4]; 450 μmol/kg): 72.0 ± 8.2%
Efficacy ([4]; 450 μmol/kg): 68.1%

melting point: 195 to 199 °C
Compound: CCOC(C)c1c(O)c(=O)cc(C)n1C (centres unmarked) (as salt: hydrochloride) [CP373, 1,6-Dimethyl-2-(1-ethoxyethyl)-3-hydroxy-pyridin-4(1H)-one hydrochloride]

melting point: 205 to 207 °C
Compound: COC(C)c1c(O)c(=O)cc(C)n1C (centres unmarked) (as salt: hydrochloride) [CP363, 1,6-Dimethyl-2-(1-methoxyethyl)-3-hydroxy-pyridin-4(1H)-one hydrochloride]

melting point: 225 to 227 °C
Compound: CCC(OC)c1c(O)c(=O)cc(C)n1C (centres unmarked) (as salt: hydrochloride) [CP375, 1,6-Dimethyl-2-(1-methoxypropyl)-3-hydroxy-pyridin-4(1H)-one hydrochloride]

DpH 7.4 [1]: 0.42
Compound: COCc1c(O)c(=O)cc(C)n1C [CP362]

pKa (pKa of the ligand; [5]): 3.2
pKa (pKa of the ligand; [6]): 9.44
pKa (pKa of the ligand; [7]): 3.22
pKa (pKa of the ligand; [8]): 9.43
DpH 7.4 [1]: 1.09
Compound: COC(C)c1c(O)c(=O)cc(C)n1C (centres unmarked) [CP363, 1,6-Dimethyl-2-(1-methoxyethyl)-3-hydroxy-pyridin-4(1H)-one hydrochloride]
Iron Mobilisation ([4]; 150 μmol/kg): 40.7 ± 2.4%
Efficacy ([4]; 150 μmol/kg): 36.8%
Iron Mobilisation ([4]; 300 μmol/kg): 66.9 ± 8.7%
Efficacy ([4]; 300 μmol/kg): 63.0%
Iron Mobilisation ([4]; 450 μmol/kg): 73.5 ± 8.1%
Efficacy ([4]; 450 μmol/kg): 69.6%

melting point: 208 to 212 °C
Compound: Cc1cc(=O)c(O)c(C(C)O)n1C (centres unmarked) (as salt: hydrochloride) [CP361, 1,6-Dimethyl-2-(1-hydroxyethyl)-3-hydroxy-pyridin-4(1H)-one hydrochloride]

— patent US6448273B1, “Orally active iron (III) chelators” (BTG International Limited, priority 1997, dated 2002)
